# Values quoted from earlier work, collected in patent US20070141182A1, “Combination of multiple nonteroidal antiinflammatory drugs and muscle relaxants for local treatment of musculoskeletal pain” (priority 2005, published 2007).
# What was measured:
# [1] = test system: COX-1 and COX-2
# [2] = compared with more traditional NSAIDs
# [3] = for patient ratings of efficacy versus placebo: topical commercial forms
# [4] = 75 mg/ml in the donor gel, human skin
# [5] = dissolved in lecithin microemulsion gel
# [6] = topical gel, 6 patients
# [7] = 2.5% gel daily, 10 healthy subjects
# [8] = test system: prostaglandins
compound,measurement,setting,value
"CC(=O)Oc1ccccc1C(=O)O [ASA, acetylsalicylic acid]",decrease in pain (VAS),oral ASA 500 mg,15.4%
same,patients with a poor response,oral administration,79%
"CC(C(=O)O)c1ccc(-c2ccccc2)c(F)c1 (centres unmarked) [Flurbiprofen, flurbiprofen]",COX-1 / COX-2 isoform selectivity of inhibition,[1],inhibit both COX-1 and COX-2 equally
COc1ccc2cc(CCC(C)=O)ccc2c1 [Nabumetone],incidence of gastric lesions,[2],lower incidence of gastric lesions
same,COX-1 / COX-2 isoform selectivity of inhibition,[1],more selectively inhibit COX-2
"CN1C(C(=O)Nc2ccccn2)=C(O)c2ccccc2S1(=O)=O [Piroxicam, piroxicam]",patient ratings of efficacy versus placebo,[3],superior efficacy
same,COX-1 / COX-2 isoform selectivity of inhibition,[1],preferentially inhibit COX-1
CC(C)(C)NCC(O)c1cc(Br)no1 (centres unmarked) [broxaterol],flux through the skin,[4],47 μg.h^−1 cm^−2
O=C(O)Cc1ccccc1Nc1c(Cl)cccc1Cl [diclofenac],steady-state flux,[5],about 1 μg h^−1 cm^−2
CCc1cccc2c3c([nH]c12)C(CC)(CC(=O)O)OCC3 (centres unmarked) [etodolac],incidence of gastric lesions,[2],lower incidence of gastric lesions
same,COX-1 / COX-2 isoform selectivity of inhibition,[1],more selectively inhibit COX-2
CC(C)Cc1ccc(C(C)C(=O)O)cc1 (centres unmarked) [ibuprofen],patient ratings of efficacy versus placebo,[3],superior efficacy
same,COX-1 / COX-2 isoform selectivity of inhibition,[1],inhibit both COX-1 and COX-2 equally
COc1ccc2c(c1)c(CC(=O)O)c(C)n2C(=O)c1ccc(Cl)cc1 [indomethacin],efficacy of topical versus oral administration,"[3]; human, in vivo, po",as effective as therapeutic doses of oral indomethacin
same,patient ratings of efficacy versus placebo,[3],superior efficacy
same,COX-1 / COX-2 isoform selectivity of inhibition,[1],preferentially inhibit COX-1
same,steady-state flux,[5],about 1 μg h^−1 cm^−2
CC(C(=O)O)c1cccc(C(=O)c2ccccc2)c1 (centres unmarked) [ketoprofen],ketoprofen concentration in capsular sample,[6],2.35 µg/g
same,ketoprofen concentration in intra-articular adipose tissue,[6],4.7 µg/g
same,ketoprofen concentration in synovial fluid,[6],1.4 µg/g
same,plasma concentrations as share of the daily dose applied,[7],2.6%
same,patient ratings of efficacy versus placebo,[3],superior efficacy
Cc1ccc(Cl)c(Nc2ccccc2C(=O)O)c1Cl [meclofenamate],COX-1 / COX-2 isoform selectivity of inhibition,[1],inhibit both COX-1 and COX-2 equally
CS(=O)(=O)c1ccc(C2=C(c3ccccc3)C(=O)OC2)cc1 [rofecoxib],COX-1 / COX-2 isoform selectivity of inhibition,[1],highly selective and potent inhibitors of COX-2
O=C(Oc1ccccc1C(=O)O)c1ccccc1O [salsalate],inhibition of prostaglandins,[8],only weakly inhibit prostaglandins
magnesium choline trisalicylate,inhibition of prostaglandins,[8],only weakly inhibit prostaglandins
